Three molecules from ChEMBL document CHEMBL1152991, “Tetracycline resistance in Ureaplasma spp. and Mycoplasma hominis: prevalence in Bordeaux, France, from 1999 to 2002 and description of two tet(M)-positive isolates of M. hominis susceptible to tetracyclines” (2008) can be followed below.

≈ marks a conversion by molar mass, not a printed value.

Format in all cases: functional
Assay [1] concerns Metamycoplasma hominis. As to the kind of experiment: Antimicrobial activity against tetracycline-susceptible Mycoplasma hominis isolate 3425 expressing tet(M) gene after 20 passages of drug treatment.
In assay [2] the test system is Metamycoplasma hominis. Put plainly: Antimicrobial activity against tetracycline-resistant Mycoplasma hominis isolate overexpressing tet(M) gene.
Assay [3] concerns Ureaplasma. Put plainly: Antimicrobial activity against tetracycline-resistant Ureaplasma sp. isolate overexpressing tet(M) gene.
Assay [4] relates to Metamycoplasma hominis. As to the kind of experiment: Antimicrobial activity against tetracycline-susceptible Mycoplasma hominis isolate 3430 expressing tet(M) gene after 3 passages of drug treatment.
Assay [5] has as its system Metamycoplasma hominis. As to the kind of experiment: Antimicrobial activity against tetracycline-susceptible Mycoplasma hominis isolate 3430 expressing tet(M) gene after 10 passages of drug treatment.

One may read the MIC as the lowest concentration that inhibits growth of the organism. High values mean a less susceptible organism, low ones a more susceptible organism. Turning to `C[C@H]1c2cccc(O)c2C(=O)C2=C(O)[C@]3(O)C(=O)C(C(N)=O)=C(O)[C@@H](N(C)C)[C@@H]3[C@@H](O)[C@@H]21.O` [DOXYCYCLINE], the MIC in assay [1] is 0.12 µg/mL; in assay [2], 32 µg/mL; in assay [3] it was > 32 µg/mL; in assay [4] it was 0.12 µg/mL; in assay [5] it was 32 µg/mL.

As for `CN(C)c1ccc(O)c2c1C[C@H]1C[C@H]3[C@H](N(C)C)C(O)=C(C(N)=O)C(=O)[C@@]3(O)C(O)=C1C2=O` [MINOCYCLINE], the MIC in assay [2] is 32 µg/mL (≈ 69.9 µM); in assay [3], > 32 µg/mL.

In the case of `CN(C)[C@@H]1C(O)=C(C(N)=O)C(=O)[C@@]2(O)C(O)=C3C(=O)c4c(O)cccc4[C@@](C)(O)[C@H]3C[C@@H]12` [TETRACYCLINE], the values for the MIC in assay [2] and in assay [3] were 32 µg/mL (≈ 72 µM) and > 32 µg/mL, respectively.
